The source of these data is patent EP2487185A1, “Hexapeptide with improved activity in the repair of cellular DNA of dermal cells” (Clinuvel Pharmaceuticals Limited, priority 2011, dated 2012).

Non-standard residues stand in square brackets, D forms with d. Nle = CCCC[C@H](N)C(=O)O

The subject of one assay is human melanocytes. The assay can be described thus: DNA damage as measured by 8-oxo-dG (FITC-conjugated 8-oxo-dG antibody immunofluorescence). The format is cell-based. As to conditions: for 8-oxo-dG, Arbitrary units: 37 Celsius, mean fluorescence intensity. An excerpt: DNA damage of cultured melanocytes following UV irradiation leads to consistent levels of photoproducts such as 8-oxo-dG. It is well established in the art (dermal carcinogenesis) that 8-oxodG is a major form of UV induced oxidative DNA damage, which results from the generation of reactive oxygen species (ROS). The induction of 8-oxodG by 8-oxo-dGTP can be inhibited by pyrophosphohydrolases (8-[…]) that convert it to 8-oxo-dGMP. To elucidate the involvement of 8-oxo-[…] in carcinogenesis, an assay of the 8-oxo-[…] activity was used (Sigma Chemical Co. (USA) as well as a conjugated 8-oxo-dG antibodies (OxoDNA Assay Kit; Calbiochem/EMD Biosciences). Melanocytes were plated onto coverslips, and treated 48 h thereafter for 4 days prior to, and immediately after irradiation with 0 or 105 mJ/cm^2 UV, 0.1-10.0 nM α-MSH, with 0 (control) or 0.1-10.0 nM α-MSH, or 0.001-10 nM NDP-MSH or 0.001-10.0 nM CUV 9900. Two hours after UV exposure, cells were fixated with 4% paraformaldehyde in PBS, hydrated in increasing concentrations of cold methanol, and permeabilized in 99% methanol for 30 min at 4 °C. Melanocytes were incubated in blocking solution at 37 °C for 1 h and then with FITC-conjugated 8-oxo-dG antibody, or mouse IgG as a negative control, at 37 °C for 1 h. The IgG controls were then incubated with FITC-conjugated anti-mouse antibody. Immunofluorescence was detected using a microscope with FITC filters. Data were expressed as the mean fluorescence intensity ±S.E., determined using the densitometry values from 6-8 randomly obtained images, using the computer assisted program Alpha Inotech Imaging System and the AlphaEase FC StandAlone Software.

Another assay deals with Melanocytes. Nature of the assay: DNA damage as measured by cyclobutane pyrimidine dimers (CPD), flow cytometry. The format is cell-based, human. As to conditions: 48 h after 105 mJ/cm^2 UV; 10 nM α-MSH, 1 nM NDP-MSH or 1 nM CUV9900, 4 days prior to and 2 days after UV. The procedure: Cyclobutane pyrimidine dimers (CPD), the major determinant of UV induced DNA photoproducts, were detected using flow cytometry analysis.
Melanocytes were pretreated with 0 (control), 10 nM α-MSH or 1 nM NDP-MSH or 1 nM CUV9900 for 4 days prior to, and 2 days after exposure to 105 mJ/cm^2 UV, harvested 48 hours post irradiation, fixated with 70% ethanol, the DNA denatured with 1N HCl/0.2 mg/ml pepsin, then renaturated with sodium tetraborate. Melanocytes were blocked and incubated overnight at 4°C with the anti-CPD antibody (diluted 1:500; TDM-2 clone), then with goat anti-mouse IgG Alexa Fluor 488 (Invitrogen, Carlsbad CA) for 1 hour, and finally resuspended in PBS containing RNase A and propidium iodide. Melanocytes were analyzed on a Coulter EPICS XL flow cytometer (Beckman Coulter) using a 488nm argon ion laser A 525 band pass filter was used for the Alexa fluor 488 and a 620 band pass filter for the propidium iodide.

A further assay has as its system melanocyte strain 1513c. Nature of the assay: Cell proliferation as a measure of stability. Type of assay: cell-based, human. Conditions: for Cell proliferation, column 2: column 2, not defined; for Cell proliferation, Mean [1+2]: STRAIN 1513c, mean over experiments [1] and [2]. The procedure:
With continued reference to Figs. 7, 8 and 9, to determine the stability of CUV9900 versus that of NDP-MSH and α-MSH, melanocytes were treated with 1 nM of each peptide, namely with CUV9900, NDP-MSH and α-MSH, for a total of 6 days, or with 1 nM peptides that were incubated for 5 hours at 37 °C prior to addition to the cultures, every other day, for a total of 6 days. Tyrosinase activity was measured at the end of treatment. In the experiments, cell number represents the mean percent of control of 3 determinations/ group ±SE, and tyrosinase activity data represent the mean percent of control of 6 determinations ±S.E. It should be noted that for the sake of reproducibility the experiment of strain 1513c of Fig. 9 was performed once more 6 months later than the experiment of Fig. 7.
Peptides were incubated at 37 degrees Celsius for 5 hours and then split into groups. Cell proliferation was a measure of stability, whereby the experiments on strain 1513c were divided in period 1 and 2 under standard conditions.

The test system of another assay is melanocytic strain 1505b. Nature of the assay: UV-induced generation of hydrogen peroxide (luminol luminescence). Conditions: for UV-induced hydrogen peroxide generation: strain 1505b, 105 mJ/cm^2 UV, 0, 30 and 45 minutes after UV. The format is cell-based, human. From the text:
With reference to Figs. 10 and 11, melanocytes were irradiated with a bank of FS 20 lamps, with 75% emission in the UVB, and 25% emission in the UVA spectra, with peak emission at 313 nm wavelength. Any emission of UVC rays from the UV source (FS 20 lamps) was blocked by Kodacel filter. Prior to irradiation, the culture medium was replaced by PBS, which was removed after UV exposure, and fresh medium added.
Melanocytes were irradiated with 105 mJ/cm^2 UV, and treated immediately while in PBS with 0, 1 nM α-MSH or 1 nM CUV9900. Generation of hydrogen peroxide, representative of reactive oxygen species (ROS), was determined by measuring the luminescence of luminol at 0, 30, and 45 min after UV exposure. Triplicate dishes were included in each group, and duplicate samples from each dish were used for measurement of hydrogen peroxide at each time point. Each data point represents the mean of 6 determinations/group ±S.E.

The next assay relates to melanocyte strain 103c. Nature of the assay: UV-induced apoptosis by Annexin Va staining, flow cytometry. The format is cell-based, human. Conditions: 1 nM, 4 days prior and 1 day following 105 mJ/cm^2 UV. The procedure:
With reference to Fig. 12 and 13, melanocytes were maintained for the duration of the experiment in medium lacking bovine pituitary extract (BPE) to determine the survival effect of α-MSH or its analogs in the absence of the anti-apoptotic effect of TPA. Melanocytes were treated with 0, 1 nM α-MSH, 1 µM Forskolin, or 1 nM NDP-MSH or CUV9900 for 4 days prior to, and 24 h after exposure to a dose of 105 mJ/cm^2 UV, then stained for Annexin Va staining. The data are represented as percent increase above control, with triplicate dishes included in each group.
Comparison of the effect of CUV9900, NDP-MSH and MSH on the UV-induced apoptosis were made in the melanocyte strains 103c and melanocyte strain 1513c of Figs. 12 and 13, respectively. Both strains were treated with 1 nM CUV9900, NDP and MSH, respectively for 4 days prior and 1 day following irradiation. Floating as well as attached cells were harvested and stained for Annexin V, and analyzed by flow cytometry.

Setting [1] is: 75%UVB 25% UVA, 105 mJ/cm^2, 2 h after UV.
The mark [2] stands for this setting: STRAIN 1513c [1], Table 1, mean of columns 1-3.
[3] abbreviates: STRAIN 1513c [2], Table 2, mean.

Regarding “Ac-Nle-Glu His-D-Phe-Arg-Trp-NH2 (Ac-[Nle]EH[dF]RW-NH2; SMILES CCCC[C@H](NC(C)=O)C(=O)N[C@@H](CCC(=O)O)C(=O)N[C@@H](Cc1c[nH]cn1)C(=O)N[C@H](Cc1ccccc1)C(=O)N[C@@H](CCCNC(=N)N)C(=O)N[C@@H](Cc1c[nH]c2ccccc12)C(N)=O) [CUV9900, hexapeptide, alpha-MSH analogue]”, the “less damage than UV alone (8-oxo-dG)” value in the assay with human melanocytes is 120%. For the same substance, the entries for the “8-oxo-dG, Arbitrary units” value with human melanocytes (setting [1]) and with human melanocytes (Source None (no UV irradiation)) were 38 a.u and 30 a.u, respectively. Moreover, the “Absolute values of CPD products (CPD median fluorescence intensity)” value in the assay with Melanocytes is approximately 11.55. The “Cell proliferation, column 2” value is recorded as 108 % of control with melanocyte strain 1513c (STRAIN 1513c [1], Table 1, 1nM) and 119.8 % of control with melanocyte strain 1513c (STRAIN 1513c [2], Table 2). The “Cell proliferation, Mean” value in the assay on melanocyte strain 1513c (setting [2]) is 110.7 % of control; with melanocyte strain 1513c (setting [3]), 119.9 % of control. Further, in the assay with melanocyte strain 1513c (Table 2), the “Cell proliferation, Mean [1+2]” value is on record as 114.3 % of control. Besides, in the assay on melanocytic strain 1505b (at 45 minutes after UV), the “reducing the generation of hydrogen peroxide, comparison to NDP-MSH and MSH” value is on record as “most effective at reducing the generation of hydrogen peroxide”. The “hydrogen peroxide generation, comparison” value with melanocytic strain 1505b (at 45 minutes after irradiation, 1 nM, strain not given) is “lower hydrogen peroxide generation in comparison with both NDP-MSH and MSH”. The “UV-induced hydrogen peroxide generation” value in the assay with melanocytic strain 1505b (1 nM) is reported as “significant reduction of UV-induced hydrogen peroxide generation”. Also, in the assay with melanocyte strain 103c, the “anti-apoptotic effect (UV-induced apoptosis, Annexin V)” value is “equal anti-apoptotic effect than NDP-MSH”.

On to “Ac-Ser-Tyr-Ser-Nle-Glu-His-D-Phe-Arg-Trp-Gly-Lys-Pro-Val-NH2 [NDP-MSH, reference compound]”, for which the “8-oxo-dG, Arbitrary units” value in the assay on human melanocytes (setting [1]) is on record as 39-40 a.u. The “Absolute values of CPD products (CPD median fluorescence intensity)” value in the assay with Melanocytes was approximately 12.5. The “Cell proliferation, column 2” value was 115 % of control in the assay on melanocyte strain 1513c (STRAIN 1513c [1], Table 1, 1nM) and 117.5 % of control in the assay with melanocyte strain 1513c (STRAIN 1513c [2], Table 2). In addition, the “Cell proliferation, Mean” value in the assay on melanocyte strain 1513c (setting [2]) is on record as 112.7 % of control; with melanocyte strain 1513c (setting [3]), 115.0 % of control. Further, the “Cell proliferation, Mean [1+2]” value with melanocyte strain 1513c (Table 2) was 113.6 % of control. Further, in the assay with melanocytic strain 1505b (1 nM), the “UV-induced hydrogen peroxide generation” value is listed as “significant reduction of UV-induced hydrogen peroxide generation”.
